Literature values in US20060269513A1, “Pheromone composition” (Kiotech Limited, priority 1997, published 2006).

Tested on: humans
Conditions: human olfactory threshold
For `CCCCC(C)CCC(=O)O` (stereo not shown) [4-Methyloctanoic acid], the “Threshold concentration for humans (odour)” value (from here on “Threshold concentration”) is given as “in the region of ppb”.
In the case of `C[C@]12CC[C@@H](O)C[C@@H]1CC[C@@H]1[C@@H]2CC[C@]2(C)C=CC[C@@H]12` [5-alpha-androst-16-en-3-α-ol], the “Threshold concentration” value is given as “in the low ppb range”.
In the case of `CN(C)C` [Trimethylamine], the “Threshold concentration” value is listed as “about 1 ppb”.
In the case of `NCCCCN` [putrescine, 1,4-diaminobutane], the “Threshold concentration” value is listed as “in the ppb range”.
